Measurements as given in patent publication US5250683A, “Certain substituted taxanes and pharmaceutical compositions containing them” (Florida State University, priority 1992, dated 1993).

Tested on: tubulin
Assay: Tubulin binding assay (Tubulin Assay), method of Parness et al.
Conditions: compared to taxol and taxotere

Row | SMILES | Tubulin Assay Init. Peak | Tubulin Assay Rel. Rate
1 | CC(=O)O[C@H]1C(=O)[C@@]2(C)[C@H]([C@H](OC(=O)c3ccccc3)[C@]3(O)C[C@H](OC(=O)[C@H](O)[C@@H](NC(=O)c4ccc(Br)cc4)c4ccc(Cl)cc4)C(C)=C1C3(C)C)[C@]1(OC(C)=O)CO[C@@H]1C[C@@H]2O [Example 25, N-debenzoyl-N-(4-bromobenzoyl)-3'-desphenyl-3'-(4-chlorophenyl) taxol] | 60 | 83
2 | CC(=O)O[C@H]1C(=O)[C@@]2(C)[C@H]([C@H](OC(=O)c3ccccc3)[C@]3(O)C[C@H](OC(=O)[C@H](O)[C@@H](NC(=O)c4ccc(C(C)(C)C)cc4)c4ccc(Cl)cc4)C(C)=C1C3(C)C)[C@]1(OC(C)=O)CO[C@@H]1C[C@@H]2O [Example 26, N-debenzoyl-N-(4-t-butylbenzoyl)-3'-desphenyl-3'-(4-chlorophenyl) taxol] | 13 | 23
3 | CC(=O)O[C@H]1C(=O)[C@@]2(C)[C@H]([C@H](OC(=O)c3ccccc3)[C@]3(O)C[C@H](OC(=O)[C@H](O)[C@@H](NC(=O)c4ccc(C(C)(C)C)cc4)c4ccc(F)cc4)C(C)=C1C3(C)C)[C@]1(OC(C)=O)CO[C@@H]1C[C@@H]2O [Example 27, N-debenzoyl-N-(4-t-butylbenzoyl)-3'-desphenyl-3'-(4-fluorophenyl) taxol] | 55 | 82
4 | COc1ccc(C(=O)N[C@@H](c2ccc(F)cc2)[C@@H](O)C(=O)O[C@H]2C[C@@]3(O)[C@@H](OC(=O)c4ccccc4)[C@@H]4[C@]5(OC(C)=O)CO[C@@H]5C[C@H](O)[C@@]4(C)C(=O)[C@H](OC(C)=O)C(=C2C)C3(C)C)cc1 [Example 28, N-debenzoyl-N-(4-methoxybenzoyl)-3'-desphenyl-3'-(4-fluorophenyl) taxol] | 106 | 97
5 | COc1ccc([C@H](NC(=O)c2ccc(Cl)cc2)[C@@H](O)C(=O)O[C@H]2C[C@@]3(O)[C@@H](OC(=O)c4ccccc4)[C@@H]4[C@]5(OC(C)=O)CO[C@@H]5C[C@H](O)[C@@]4(C)C(=O)[C@H](OC(C)=O)C(=C2C)C3(C)C)cc1 [Example 29, N-debenzoyl-N-(4-chlorobenzoyl)-3'-desphenyl-3'-(4-methoxyphenyl) taxol] | 42 | 72
6 | COc1ccc([C@H](NC(=O)c2ccc(Br)cc2)[C@@H](O)C(=O)O[C@H]2C[C@@]3(O)[C@@H](OC(=O)c4ccccc4)[C@@H]4[C@]5(OC(C)=O)CO[C@@H]5C[C@H](O)[C@@]4(C)C(=O)[C@H](OC(C)=O)C(=C2C)C3(C)C)cc1 [Example 30, N-debenzoyl-N-(4-bromobenzoyl)-3'-desphenyl-3'-(4-methoxyphenyl) taxol] | 44 | 70
7 | COc1ccc([C@H](NC(=O)c2ccc(C(C)(C)C)cc2)[C@@H](O)C(=O)O[C@H]2C[C@@]3(O)[C@@H](OC(=O)c4ccccc4)[C@@H]4[C@]5(OC(C)=O)CO[C@@H]5C[C@H](O)[C@@]4(C)C(=O)[C@H](OC(C)=O)C(=C2C)C3(C)C)cc1 [Example 31, N-debenzoyl-N-(4-t-butylbenzoyl)-3'-desphenyl-3'-(4-methoxyphenyl) taxol] | 24 | 44
8 | COc1ccc(C(=O)N[C@@H](c2ccc(OC)cc2)[C@@H](O)C(=O)O[C@H]2C[C@@]3(O)[C@@H](OC(=O)c4ccccc4)[C@@H]4[C@]5(OC(C)=O)CO[C@@H]5C[C@H](O)[C@@]4(C)C(=O)[C@H](OC(C)=O)C(=C2C)C3(C)C)cc1 [Example 32, N-debenzoyl-N-(4-methoxybenzoyl)-3'-desphenyl-3'-(4-methoxyphenyl) taxol] | 51 | 81
9 | CC(=O)O[C@H]1C(=O)[C@@]2(C)[C@H]([C@H](OC(=O)c3ccccc3)[C@]3(O)C[C@H](OC(=O)[C@H](O)[C@@H](NC(=O)c4ccccc4)c4ccccc4)C(C)=C1C3(C)C)[C@]1(OC(C)=O)CO[C@@H]1C[C@@H]2O [Taxol, taxol, reference compound] | 100 | 98
10 | CC(=O)O[C@@]12CO[C@@H]1C[C@H](O)[C@@]1(C)C(=O)[C@H](O)C3=C(C)[C@@H](OC(=O)[C@H](O)[C@@H](NC(=O)OC(C)(C)C)c4ccccc4)C[C@@](O)([C@@H](OC(=O)c4ccccc4)[C@H]21)C3(C)C [Taxotere, taxotere, reference compound] | 100 | –
